{"source": "patent US6514941B1", "about": "“Method of preparing a casein hydrolysate enriched in anti-hypertensive peptides” (Campina Melkunie B.V., priority 1999, dated 2003)", "origin": "cited, not measured here", "tested_on": "SHRSP", "conditions": "dose that is not hypotensive", "data": [{"compound": "C[C@H](CS)C(=O)N1CCC[C@H]1C(=O)O", "note": "[captopril]", "values": [{"measurement": "onset of stroke", "result": "inhibits the onset of stroke"}]}]}
